# Measured values: paper PMC7955127, “Preclinical small molecule WEHI-7326 overcomes drug resistance and elicits response in patient-derived xenograft models of human treatment-refractory tumors” (Cell Death & Disease, 2021)
# Key:
# SW480 [1] = assay: Cell cycle analysis (G2/M arrest, PI staining, flow cytometry), SW480; type: cell-based, human; conditions: SW480; for EC50: Homo sapiens, overnight incubation, PI staining, flow cytometry, mean of 3 ± SEM, read-out: EC50 (G2/M arrest)
# Method: Fig. 2 Antimitotic activity of WEHI-7326: cancer cell lines and effects on tubulin polymerization. a Dose-dependent antimitotic activity of WEHI-7326, nocodazol and taxol in tumor cell lines SW480 (colorectal) and MDA-MB-231 (breast). Data are presented as percentage of cells in G2/M after overnight incubation with increasing concentrations of inhibitors and PI staining followed by flow cytometry analysis. Mean average of 3 independent experiments ±SEM. b EC50 values (nM) for G2/M arrest on SW480 and MDA-MB-231 cell lines, given as mean average of 3 independent experiments ±SEM. c Western blot analysis of mitotic arrest in SW480 and MDA-MB-231 cells treated with EC50 concentrations of WEHI-7326 or Paclitaxel as marked by expression of phosho-S10 Histone H3 (p-HH3 S10), at different timepoints post treatment. Expression of β-actin provided as loading control. d Cell cycle analysis of LIM1899 cells 72 h post treatment with increasing concentrations of WEHI-7326 as measured by PI staining for DNA content followed by flow cytometry analysis. Sub-G1 represents apoptotic fractions and >4 N cell fractions of mitotic slippage. e Immunofluorescence confocal microscopy of tubulin polymerization in SW480 cells treated by various agents. Cells were incubated for 24 h with control (0.1% DMSO), nocodazole (1 μM), paclitaxel (1 μM), myoseverin B (1 μM) or WEHI-7326 (1 μM). Cells were fixed and stained with β-tubulin antibody (green) and DAPI (DNA; blue) and phalloidin (actin, red). Shown are single confocal sections and enlarged areas (3x) to highlight changes in microtubule network; scale bar = 20 μm. Representative images from 2 independent experiments. f Cellular tubulin polymerization assay in cells: SW480 cells were incubated overnight with paclitaxel, myoseverin B or WEHI-7326, then processed to detect fractions of polymerized (P) and soluble (S) tubulin by western blot analysis. Representative blot of 3 independent experiments. g Tubulin polymerization was assessed in vitro over time using a fluorescence-based tubulin polymerization assay (BK011P). Tubulin was incubated with control (DMSO), paclitaxel (3 μM), nocodazole (15 μM) and WEHI-7326 at indicated concentrations (in DMSO). Polymerization was measured by excitation at 360 nm and emission at 420 nm. Representative graph of 3 independent experiments performed in duplicates. […]
# (§1) Cells in log growth were supplemented with fresh medium with either vehicle (control) or compound at the stated final concentrations. […] After 1 h incubation at room temperature in the dark, cells were analyzed on a FACScan (Becton and Dickinson) in CellQuest. The percentage of cells in each phase of the cell cycle was determined using ModFit software (Verity, http://www.vsh.com). Early and late apoptotic responses elicited by WEHI-7326 were assessed using Dead Cell Apoptosis Kit (ThermoFisher Scientific) with Annexin V FITC and PI following manufacturer’s instructions. Cells were incubated 24 h with 6-point, 4-fold titration of WEHI-7326, washed twice with cold 1X PBS, resuspended in 1X Annexin Binding Buffer, incubated with FITC Annexin V and PI for 15 mins at RT in the dark and subsequently analyzed by flow cytometry.
# MDA-MB-231 = assay: Cell cycle analysis (G2/M arrest, PI staining, flow cytometry), MDA-MB-231; type: cell-based; conditions: Homo sapiens; MDA-MB-231; overnight incubation, PI staining, flow cytometry; mean of 3 ± SEM; read-out: EC50 (G2/M arrest)
# Method: Fig. 2 Antimitotic activity of WEHI-7326: cancer cell lines and effects on tubulin polymerization. a Dose-dependent antimitotic activity of WEHI-7326, nocodazol and taxol in tumor cell lines SW480 (colorectal) and MDA-MB-231 (breast). Data are presented as percentage of cells in G2/M after overnight incubation with increasing concentrations of inhibitors and PI staining followed by flow cytometry analysis. Mean average of 3 independent experiments ±SEM. b EC50 values (nM) for G2/M arrest on SW480 and MDA-MB-231 cell lines, given as mean average of 3 independent experiments ±SEM. c Western blot analysis of mitotic arrest in SW480 and MDA-MB-231 cells treated with EC50 concentrations of WEHI-7326 or Paclitaxel as marked by expression of phosho-S10 Histone H3 (p-HH3 S10), at different timepoints post treatment. Expression of β-actin provided as loading control. d Cell cycle analysis of LIM1899 cells 72 h post treatment with increasing concentrations of WEHI-7326 as measured by PI staining for DNA content followed by flow cytometry analysis. Sub-G1 represents apoptotic fractions and >4 N cell fractions of mitotic slippage. e Immunofluorescence confocal microscopy of tubulin polymerization in SW480 cells treated by various agents. […] Representative blot of 3 independent experiments. g Tubulin polymerization was assessed in vitro over time using a fluorescence-based tubulin polymerization assay (BK011P). […] Polymerization was measured by excitation at 360 nm and emission at 420 nm. […]
# as §1, with “Cells were incubated 24 h with 6-point, 4-fold titration of WEHI-7326, washed twice with cold 1X PBS, resuspended in 1X Annexin Binding Buffer, incubated with FITC Annexin V and PI for 15 mins at RT in the dark and subsequently analyzed by flow cytometry.” left out
# SW480 [2] = assay: Cell growth inhibition assay, SW480; type: cell-based, human; conditions: SW480 colon cancer cell line in vitro
# Method: Cells were plated at a density of between 500 to 5000 cells per well for adherent cell lines depending on doubling time, and 15,000 cells per well for lymphoblastic leukemia cell lines, in a 96-well plate in 200 μl of growth media. Plates were incubated overnight at 37 °C before adding the inhibitors. Inhibitors were serially diluted from the stock solutions in complete medium and added to the cells. Incubation in the presence of inhibitors was continued for […]. Cell viability was assessed by the AlamarBlue (Invitrogen) or CellTiterBlue/Glo (Promega) method according to manufacturer’s instructions. The curve fits and IC50 values were generated in PRISM (GraphPad, San Diego, CA).
# a Chemical structures of the triazine-based anti-mitotics used in this study. b Dose-dependent antiproliferative activity of key derivatives and comparison with commonly used anti-mitotics in SW480 cell line: Data shown is cell viability (as measured by CellTiterGlo) after 72 h relative to untreated control cells. Shown is mean of 3 independent experiments performed in duplicate +/- SEM. c Dose-dependent cell cycle analysis of key derivatives of WEHI-7326 development in SW480 cell line. Data are presented as percentage of cells in G2/M or subG0 after 24 h incubation with titration of inhibitors as assessed by PI staining and flow cytometry. Mean average of 3 experiments +/- SEM. d Comparison of IC50 and EC50 values of triazine compounds and anti-mitotic drugs in SW480 cell line: inhibition of cellular proliferation and cell cycle arrest in G2/M. IC50 and EC50 values are the mean of 3 independent experiments run in duplicates +/- SEM (n.d. = not determined). e HepG2 cytotoxic assay: cell viability assay after 48 h, normalised to 0.4% DMSO (100% viability) and 2 μM bortezomib (0% viability). The data is the mean average of 2 experiments +/- SD.
# [3] = test system: MDA-MB-231 LNA DRE (docetaxel resistant breast cancer) xenograft; assay: Orthotopic MDA-MB-231 LNA-DRE xenograft; type: in vivo, Balb/c nude mice; conditions: docetaxel 10 mg/kg weekly i.v., WEHI-7326 30 mg/kg biweekly i.v.
# Method: LoVo (4 × 10^6), PC3 (3 × 10^6) or MDA-MB-231 LNA DRE (10^6) cells were collected by trypsination and injected with 50 μl 1:1 PBS:Matrigel (v/v) subcutaneously on the right flank of 18 female (LoVo), 40 male (PC3) or into 4th mammary fat pad of 40 female (MDA231) Balb/c nude mice. Tumor growth was monitored and average tumor size at commencement of dosing was 100 mm^3. Mice were randomized into 3 arms of each 5 (LoVo), 10 (PC3) or 12 (MDA23) mice respectively and treatment with vehicle (saline), WEHI-7326 (biweekly) or docetaxel (weekly) was administered via tail vein injection. Tumor volumes were measured at least twice weekly with calipers and the experiments were terminated when tumors in the control group started exceeding 1500 mm^3. For LoVo, both vehicle and 25 mg/kg WEHI-7326 groups were harvested 24 h, but 20 mg/kg WEHI-7326 group harvested 1 h post final dose. For PC3, docetaxel group was not harvested in an attempt to grow out resistant tumors.
# MH792 LUSC PDX = assay: LUSC PDX model MH792; type: in vivo, NOD-SCID-IL2Rγc–/– mice; conditions: MH792 PDX; WEHI-7326 20 mg/kg i.v. biweekly; docetaxel 10 mg/kg i.p. once
# Method: (§2) LUSC PDXs were generated as described in[25]. PDXs at passage 4 were defrosted and washed with PBS before counting. 200,000 to 500,000 cells were then injected in a 50:50 PBS:Matrigel mix into the flanks of NOD-SCID-IL2Rγc–/– male mice. Tumors were measured twice weekly with calipers and treatment started when tumors were between 70–120 mm^3. Mice were assigned to treatment groups based on average tumor volume per group. Mice were culled when tumors reached a volume of 600 mm^3.
# AH406 LUSC PDX = assay: LUSC PDX model AH406; type: in vivo, NOD-SCID-IL2Rγc–/– mice; conditions: WEHI-7326 20 mg/kg i.v. biweekly, docetaxel 10 mg/kg i.p. once
# Method: as §2
# 24 T TNBC PDX = assay: TNBC PDX model 24T; type: in vivo, NOD-SCID-IL2Rγc–/– mice; conditions: 24 T PDX; docetaxel 10 mg/kg i.p. once; WEHI-7326 20 mg/kg i.v. biweekly
# Method: (§3) Cohorts of about 30 female mice were seeded with thawed single cell suspensions of early passage human breast tumors (passage 2 or 3). Briefly, 150,000–250,000 cells were resuspended in 10 µl of transplantation buffer (50% fetal calf serum, 10% of a 0.04% trypan blue solution and 40% PBS) and growth-factor-reduced Matrigel [BD] at a ratio of 3:1, and injected into the cleared mammary fat pads of 3- or 4-week-old NOD-SCID-IL2Rγc–/– female mice. Mice were monitored for tumor development three times weekly and tumor size measured using digital Vernier calipers. Tumor volume was estimated by measuring the minimum and maximum tumor diameters using the formula: (minimum diameter)^2 x (maximum diameter)/2. Once tumors arose, mice were randomized into treatment arms. Treatment was initiated when the tumor volume reached 80–120 mm^3. Randomization and tumor measurements were managed using the Study Director software (v 3.0, studylog). Mice were sacrificed at the first measurement where tumor volume exceeded 600 mm^3, or if their health deteriorated for reasons other than disease progression or drug toxicity (censored event).
# (§4) Mice were treated with either docetaxel (10 mg/kg; i.p.; once), cisplatin (4 mg/kg; i.p.; once) or WEHI-7326 (20 mg/kg; twice a week (Monday and Thursday); i.v.). Vehicle treated mice were administered with the vehicle for WEHI-7326. Docetaxel was resuspended at 2 mg/ml in PBS:Tween-80:ethanol = 90:5:5 (v/v/v). WEHI-7326 was resuspended at 2 mg/ml in saline.
# 322 T TNBC PDX = assay: TNBC PDX model 322T; type: in vivo, NOD-SCID-IL2Rγc–/– mice; conditions: 322 T PDX; docetaxel 10 mg/kg i.p. once; WEHI-7326 20 mg/kg i.v. biweekly
# Method: as §3, §4
compound,measurement,setting,value
"COC(=O)Nc1nc2ccc(C(=O)c3cccs3)cc2[nH]1 [Nocodazol, nocodazole, reference compound]",EC50,SW480 [1],57.4 ± 5.9 nM
same,EC50,MDA-MB-231,37.2 ± 7.2 nM
COc1ccc(CNc2nc(NCc3ccc(OC)cc3)nc(NN3CC(=O)NC3=O)n2)cc1 [compound 6],G2/M cell cycle arrest,SW480 [1],strong G2/M cell cycle arrest
same,Concentration inhibiting proliferation,SW480 [2],at or below micromolar concentration
"CC(=O)O[C@@]12CO[C@@H]1C[C@H](O)[C@@]1(C)C(=O)[C@H](O)C3=C(C)[C@@H](OC(=O)[C@H](O)[C@@H](NC(=O)OC(C)(C)C)c4ccccc4)C[C@@](O)([C@@H](OC(=O)c4ccccc4)[C@H]21)C3(C)C [docetaxel, reference compound]",Tumor growth inhibition (TGI),[3],70%
same,Median survival,MH792 LUSC PDX,22 days
same,Median survival,AH406 LUSC PDX,24 days
same,Survival time,24 T TNBC PDX,11 days
same,Survival time,322 T TNBC PDX,7 days
"CC(=O)O[C@H]1C(=O)[C@@]2(C)[C@H]([C@H](OC(=O)c3ccccc3)[C@]3(O)C[C@H](OC(=O)[C@H](O)[C@@H](NC(=O)c4ccccc4)c4ccccc4)C(C)=C1C3(C)C)[C@]1(OC(C)=O)CO[C@@H]1C[C@@H]2O [Paclitaxel, paclitaxel, reference compound]",EC50,SW480 [1],39.3 ± 4.1 nM
same,EC50,MDA-MB-231,5.6 ± 3.1 nM
